Source: PMC8041284, “Tunable Methacrylamides for Covalent Ligand Directed Release Chemistry” (Journal of the American Chemical Society, 2021)
Where two headings read alike, the source gives them in different places.

Target: BTK (Homo sapiens, UniProt Q06187)
Assay: biochemical
[1] = read-out: BTK inhibition (%), 0.75 uM BTK, […] probe 3l, 15 min preincubation

Chain of BTK (Q06187 402-655 limits assumed): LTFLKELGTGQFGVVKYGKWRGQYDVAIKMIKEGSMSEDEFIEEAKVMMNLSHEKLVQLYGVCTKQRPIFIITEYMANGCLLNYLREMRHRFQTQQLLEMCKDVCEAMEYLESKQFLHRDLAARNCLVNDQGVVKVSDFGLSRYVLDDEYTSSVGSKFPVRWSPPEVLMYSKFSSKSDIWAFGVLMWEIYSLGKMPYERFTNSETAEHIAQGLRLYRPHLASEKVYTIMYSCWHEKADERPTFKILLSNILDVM

Structure (SMILES)	inhibition at 10 µM (read-out: BTK inhibition (%)) [%]	inhibition at 10 µM [1] [%]
CC(C)=CCC[C@H](C(=O)O)[C@@H]1CC[C@]2(C)C3=C(CC[C@@]12C)[C@@]1(C)CCC(=O)C(C)(C)[C@@H]1CC3 [PCM-0216312]	-6.2	–
COC(=O)[C@@H]1CC2=CC(=O)CC[C@]2(C)[C@@]23O[C@@H]2C[C@@]2(C)[C@@H](CC[C@@]24CCC(=O)O4)[C@H]13 [PCM-0215188]	–	-18.7
Nc1nccc(Oc2ccc(NC(=O)c3c[nH]cc(-c4ccc(F)cc4)c3=O)cc2F)c1Cl [PCM-0095240]	–	68.3
CC1(C)CC(=O)c2c(C(F)(F)F)nn(-c3ccc(C(N)=O)c(NC4CCC(OC(=O)CN)CC4)c3)c2C1 (stereo not shown) [PCM-0214703]	–	1.6
C=C1c2cccc(O)c2C(O)=C2C(=O)[C@]3(O)C(O)=C(C(N)=O)C(=O)[C@@H](N(C)C)[C@@H]3[C@@H](O)[C@H]12 [PCM-0215189]	–	17
OC[C@@H](O)[C@@H](O)CO [PCM-0214773]	–	7.8
COc1cc(/C=C/c2ccc(O)c(O)c2)cc(OC)c1 [PCM-0214943]	–	36.6
CCc1cccc(CC)c1NC(=O)N1Cc2[nH]nc(NC(=O)c3ccc(N4CCN(C)CC4)cc3)c2C1 [PCM-0095127]	–	65.5
COCCCc1sc(-c2ccccc2)nc1C(=O)Nc1ccccc1-c1nc2cc(CN3CCCC3)cnc2s1 [PCM-0215812]	–	57.9
CCOC(=O)[C@H](CCc1ccccc1)N[C@H]1CS[C@H](c2cccs2)CN(CC(=O)O)C1=O [PCM-0095261]	–	-1.6
CCCCCCNC(=O)n1cc(F)c(=O)[nH]c1=O [PCM-0065487]	–	-7
CC(C)[C@H](NC(=O)c1ccc2ccccc2n1)C(=O)N[C@@H](CC(=O)O)C(=O)COc1c(F)cccc1F [PCM-0215598]	–	7.7
C[C@]12CC[C@@H]3c4ccc(O)cc4CC[C@H]3[C@@H]1C[C@@H](O)[C@@H]2O [PCM-0086283]	–	5.4
CC1(C)S[C@@H]2[C@H](NC(=O)[C@H](N)c3ccccc3)C(=O)N2[C@H]1C(=O)O [PCM-0214636]	–	-1.6
CCOc1cc2ncc(C#N)c(Nc3ccc(OCc4ccccn4)c(Cl)c3)c2cc1NC(=O)/C=C/CN(C)C [PCM-0095315]	–	80
O=C(O)c1cc(O)c2c(c1)[C@@H]([C@H]1c3cc(C(=O)O)cc(O)c3C(=O)c3c(O[C@@H]4O[C@H](CO)[C@@H](O)[C@H](O)[C@H]4O)cccc31)c1cccc(O[C@@H]3O[C@H](CO)[C@@H](O)[C@H](O)[C@H]3O)c1C2=O [PCM-0086913]	–	84.1
COc1cc(C=O)c([N+](=O)[O-])cc1OC [PCM-0216182]	–	-13.9
COc1ccc2c(c1O)-c1c(O)c(OC)cc3c1[C@H](C2)[N+](C)(C)CC3 [PCM-0216382]	–	-1.5
CNC(=O)c1cnn(-c2nc(N)c3ncn([C@@H]4O[C@H](CO)[C@@H](O)[C@H]4O)c3n2)c1 [PCM-0216236]	–	5.4
C=C(C)[C@@H]1CC[C@]2(C(=O)O)CC[C@]3(C)[C@H](CC[C@@H]4[C@@]5(C)CC[C@H](O)[C@@](C)(CO)[C@@H]5CC[C@]43C)[C@@H]12 [PCM-0216604]	–	26.3
CC(C)=C1CC[C@@H](C)CC1=O [PCM-0216421]	–	14.7
CN(C)[C@@H]1C(=O)C(C(N)=O)=C(O)[C@@]2(O)C(=O)C3=C(O)c4c(O)cccc4[C@@](C)(O)[C@H]3C[C@@H]12 [PCM-0085873]	–	6.2
CN(C)CCCCC(=O)Nc1ccc(NC(=S)NC(=O)c2ccc(C(C)(C)C)cc2)cc1 [PCM-0214793]	–	7
CCCCNc1ncc(C(=O)NCc2ccc(-n3ccnc3)cc2)c(NC2CCC(O)CC2)n1 (stereo not shown) [PCM-0215319]	–	2.1
C=C(C)[C@@H]1CC[C@]2(C(=O)O)CC[C@]3(C)[C@H](CC[C@@H]4[C@@]5(C)CCC(=O)C(C)(C)[C@@H]5CC[C@]43C)[C@@H]12 [PCM-0215047]	–	66.9
Cc1sc2c(c1C)C(c1ccc(Cl)cc1)=N[C@@H](CC(=O)OC(C)(C)C)c1nnc(C)n1-2 [PCM-0095747]	10.8	–

Structure (SMILES)	inhibition at 10 µM (read-out: BTK inhibition (%)) [%]	inhibition at 10 µM [1] [%]
CC(C(=O)O)c1ccc(CC2CCCC2=O)cc1 (stereo not shown) [PCM-0065463]	–	1.7
COc1ccc(C[C@@H]2c3cc(OC)c(OC)cc3CC[N@+]2(C)CCC(=O)OCCCCCOC(=O)CC[N@@+]2(C)CCc3cc(OC)c(OC)cc3[C@H]2Cc2ccc(OC)c(OC)c2)cc1OC [PCM-0095290]	–	-8.6
CC(C)C[C@H](NC(=O)[C@H](Cc1ccccc1)C[C@@H](O)[C@H](Cc1ccccc1)NC(=O)OC(C)(C)C)C(=O)N[C@@H](Cc1ccccc1)C(N)=O [PCM-0215547]	–	5.4
Cc1ccc(-n2sc(=O)n(Cc3ccc(F)cc3)c2=O)cc1 [PCM-0095367]	–	-12.5
CC1CCc2c(N3CCC(O)CC3)c(F)cc3c(=O)c(C(=O)O)cn1c23 (stereo not shown) [PCM-0086338]	–	1.6
CCS(=O)(=O)CCn1c([N+](=O)[O-])cnc1C [PCM-0086486]	–	-4.7
C[C@H](C[C@H](O)[C@H]1OC1(C)C)C1=C2C[C@H](O)[C@H]3[C@@]4(C)CCC(=O)C(C)(C)[C@@H]4CC[C@]3(C)[C@@]2(C)CC1 [PCM-0216518]	–	-24.7
CC(C(=O)O)c1ccc2c(c1)Cc1cccnc1O2 (stereo not shown) [PCM-0086477]	–	-11.7
CCS(=O)(=O)N1CC(CC#N)(n2cc(-c3ncnc4[nH]ccc34)cn2)C1 [PCM-0095473]	–	-20
COc1nc(OCc2cccc(-c3ccccc3)c2C)ccc1CNCCNC(C)=O [PCM-0215525]	–	-51.7
C=C1[C@@H]2CC[C@@H](C2)[C@]1(C)CC/C=C(\C)CO [PCM-0216479]	–	0
CCCN(CCc1cccs1)[C@H]1CCc2c(O)cccc2C1 [PCM-0214799]	–	14.8
NC(=O)Cc1cccc(C(=O)c2ccccc2)c1N [PCM-0095009]	–	11.7
CCCCCCOc1cc(C)c(O)c(C)c1C [PCM-0216088]	–	-25.5
COc1cc(Br)c(Nc2nc(-c3c(C)nc4ncccn34)cs2)c(Br)c1 [PCM-0095777]	34	–
C[C@H](Cc1cc2c(c(C(N)=O)c1)N(CCCO)CC2)NCCOc1ccccc1OCC(F)(F)F [PCM-0214784]	–	-12.5
O=C(O)C(=O)c1cn(Cc2ccccc2)c2ccc(-c3ccc(OC(F)(F)F)cc3)cc12 [PCM-0215526]	–	34
C=C1CCC[C@]2(C)C=C3OC(=O)C(C)=C3C[C@@H]12 [PCM-0215796]	–	-4.1
CC(C)COc1ccc(CNC(=O)N(Cc2ccc(F)cc2)C2CCN(C)CC2)cc1 [PCM-0215604]	–	-3.9
O=C(/C=C/c1ccc(CN(CCO)CCc2c[nH]c3ccccc23)cc1)NO [PCM-0095072]	–	-9.3
CC[C@H](C)[C@H](N)C(=O)O [PCM-0215927]	–	7.7
CCCCCCCCCCCCCCCC(=O)OCC [PCM-0216630]	–	-12.4
CC(C)(C)C(=O)OCOP(=O)(COCCn1cnc2c(N)ncnc21)OCOC(=O)C(C)(C)C [PCM-0095170]	–	3.9
NC1=N[C@@]2(c3cc(NC(=O)c4ccc(F)cn4)ccc3F)COC[C@H]2CS1 [PCM-0095207]	–	-3.1
COc1ccc(C(=O)N2CCCC2=O)cc1 [PCM-0064527]	–	-4.7
O=C(CCCCCCNC(=O)c1cnc(N(c2ccccc2)c2ccccc2)nc1)NO [PCM-0095595]	–	-18.5

Structure (SMILES)	inhibition at 10 µM (read-out: BTK inhibition (%)) [%]	inhibition at 10 µM [1] [%]
c1cncc(-c2cn[nH]n2)c1 [PCM-0215871]	–	15.4
C/C(=C\C(=O)Nc1ccccc1C(=O)O)c1ccc2ccccc2c1 [PCM-0095068]	–	-11
COc1cccc(-c2cc(NCc3ccc4c(c3)OCO4)nc(N)n2)c1 [PCM-0215610]	–	-7.7
COc1ccc(-n2nc(C(N)=O)c3c2C(=O)N(c2ccc(N4CCCCC4=O)cc2)CC3)cc1 [PCM-0095150]	–	-7.8
O=c1oc2c(O)c(O)cc3c(=O)oc4c(O)c(O)cc1c4c23 [PCM-0090664]	–	15.3
N=c1cc(N2CCCCC2)nc(N)n1OS(=O)(=O)O [PCM-0216071]	–	-9.3
COc1ncc(-c2cc(-c3ncc(CN4C[C@@H](C)O[C@@H](C)C4)o3)c3cn[nH]c3c2)cc1NS(C)(=O)=O [PCM-0213408]	–	6.2
O=C1NC(=O)/C(=C/c2ccc3c(c2)OC(F)(F)O3)S1 [PCM-0095357]	–	9.7
Fc1ccc(-c2c3cccc(C(F)(F)F)c3nn2Cc2ccc(F)cc2Cl)cc1 [PCM-0215789]	–	30.1
CC(C)(C)c1cc(C=C(C#N)C#N)cc(Br)c1O [PCM-0094972]	–	57.2
Cc1cc(=O)oc2c(C=O)c(O)ccc12 [PCM-0215276]	–	82.6
CCn1cc(-c2cccc(C(F)(F)F)c2)c2sc(C(N)=NC3CCS(=O)(=O)CC3)cc2c1=O [PCM-0215627]	–	2.3
CCc1nc(N)nc(N)c1-c1ccc(Cl)cc1 [PCM-0085830]	–	-13.2
O=C(O)c1cccc(-c2noc(-c3ccccc3F)n2)c1 [PCM-0095566]	–	-10
C[C@H](Oc1ccc(S(C)(=O)=O)cc1C(=O)N1CCN(c2ncc(C(F)(F)F)cc2F)CC1)C(F)(F)F [PCM-0215624]	–	-20.1
Cc1ccc(C(=O)Nc2ccc(CN3CCN(C)CC3)c(C(F)(F)F)c2)cc1C#Cc1cnc2cccnn12 [PCM-0095174]	–	92.4
N#Cc1cc(CN2CCC(Nc3ncnc4sc(Cl)cc34)CC2)ccc1F [PCM-0095600]	–	2.3
CC12CCC(C1)C(C)(C)C2O (stereo not shown) [PCM-0216150]	–	-13.9
Cc1[nH]c(/C=C2\C(=O)Nc3ccc(F)cc32)c(C)c1C(=O)NCCN1CCCC1 [PCM-0216233]	–	18.7
Cc1cn([C@@H]2C[C@@H](O)[C@H](CO)O2)c(=O)[nH]c1=O [PCM-0095099]	–	-6.2
OC[C@H]1O[C@H](O[C@H]2[C@H](O)[C@@H](O)C(O)O[C@@H]2CO)[C@H](O)[C@@H](O)[C@@H]1O (stereo partly shown) [PCM-0215131]	–	0
C[C@@H](N)c1ccc(C(=O)Nc2ccnc3[nH]ccc23)cc1 [PCM-0215750]	–	-30.3
Cc1ccc(NCCCc2ccccc2)c(N)c1 [PCM-0095790]	–	17
OC[C@@H](O)[C@@H](O)[C@H](O)[C@@H](O)CO [PCM-0090796]	–	-19.5
